Laboratory results reported in publication PMC8880564, “Design, Synthesis, and Biological Evaluation of a Novel VEGFR-2 Inhibitor Based on a 1,2,5-Oxadiazole-2-Oxide Scaffold with MAPK Signaling Pathway Inhibition” (Pharmaceuticals, 2022).

Experiments:
Assay type in all cases: cell-based
A549/ATCC = test: NCI-60 one-dose SRB screening; conditions: Homo sapiens, Non-Small Cell Lung Cancer, 10 µM one dose, 48 h, read-out: growth percentage
Description: (§1) The structures of the synthesized compounds 6a–h, 12a–c, 11, 13a–c, and 14a–c were submitted to the National Cancer Institute’s Developmental Therapeutics Program (NCI-DTP), and all of them were selected for preliminary in vitro anticancer activity screening against NCI-59 human cancer cell lines at a concentration of 10 µM, using the sulforhodamine B (SRB) assay to determine the growth percentage and cell viability.
(§2) The in vitro NCI-60 cell line screening assay was conducted at the National Cancer Institute (NCI), Bethesda, USA against 59 cancer cell lines representing 9 types of cancers, as reported earlier. Briefly, the human cancer cell lines were grown in RPMI 1640 medium containing 5% fetal bovine serum and 2 mM L-glutamine and inoculated into 96-well microtiter plates in 100 μL (5000 to 40,000 cells/well). Then, the plates were incubated at 37 °C, 5% CO2, 95% air, and 100% relative humidity for 24 h. After that, two plates of each cell line were fixed in situ with TCA, to represent cell population at time zero (Tz). The tested compounds were dissolved in DMSO at 400-fold and added so that the final concentration became 10 μM. The plates were then incubated for an additional 48 h followed by the addition of cold TCA to terminate the assay in case of adherent cells. Then, the cells were fixed in situ by cold 50% (w/v) TCA (50 μL; final concentration, 10% TCA) and incubated for 1 h at 4 °C. After discarding the supernatant, the plates were washed 5 times with tap water and air dried. Sulforhodamine B (SRB) solution (100 μL) at 0.4% (w/v) in 1% HOAc was added to each well, and plates were incubated for 10 min. at rt. Then, washing with 1% acetic acid was conducted 5 times to remove the unbound dye followed by air drying. After that, 10 mM trizma base was added to solubilize the bound stain, and the absorbance was read on an automated plate reader at a wavelength of 515 nm. On the other hand, the methodology for suspension cells was the same except that 50 μL of 80% TCA (final concentration, 16% TCA) was gently added to terminate the assay by fixing settled cells at the bottom of the wells. Percentage growth inhibition (GI%) was calculated as follows:
(§3) Growth percentage=Ti (test growth in the presence of compound at 10 µM )−Tz (time zero)/C (control growth)−Tz (time zero)×100 for Ti ≥ Tz;
(§4) Growth percentage=Ti (test growth in the presence of compound at 10 µM )−Tz (time zero)/Tz (time zero)×100 for Ti < Tz.
(§5) where values of 100, 40, 0, −40, and −100 mean no GI, 60% GI, no net G, 40% lethality, and all cells are dead, respectively.

BT-549 = test: NCI-60 one-dose SRB screening; conditions: Homo sapiens, BT-549, Breast Cancer, 10 µM one dose, 48 h, read-out: growth percentage
Description: as §1, §2, §3, §4, §5

CAKI-1 = test: NCI-60 one-dose SRB screening; conditions: Homo sapiens, CAKI-1, Renal Cancer, 10 µM one dose, 48 h, read-out: growth percentage
Description: as §1, §2, §3, §4, §5

EKVX = test: NCI-60 one-dose SRB screening; conditions: Homo sapiens, Non-Small Cell Lung Cancer, 10 µM one dose, 48 h, read-out: growth percentage
Description: as §1, §2, §3, §4, §5

HCC-2998 = test: NCI-60 one-dose SRB screening; conditions: Homo sapiens, HCC-2998, Colon Cancer, 10 µM one dose, 48 h, read-out: growth percentage
Description: as §1, §2, §3, §4, §5

HCT-116 = test: NCI-60 one-dose SRB screening; conditions: Homo sapiens, HCT-116, Colon Cancer, 10 µM one dose, 48 h, read-out: growth percentage
Description: as §1, §2, §3, §4, §5

HL-60(TB) = test: NCI-60 one-dose SRB screening; conditions: Homo sapiens, Leukemia, 10 µM one dose, 48 h, read-out: growth percentage
Description: as §1, §2, §3, §4, §5

HOP-62 = test: NCI-60 one-dose SRB screening; conditions: Homo sapiens, HOP-62, Non-Small Cell Lung Cancer, 10 µM one dose, 48 h, read-out: growth percentage
Description: as §1, §2, §3, §4, §5

HT29 = test: NCI-60 one-dose SRB screening; conditions: Homo sapiens, HT-29, HT29, Colon Cancer, 10 µM one dose, 48 h, read-out: growth percentage
Description: as §1, §2, §3, §4, §5

K-562 = test: NCI-60 one-dose SRB screening; conditions: Homo sapiens, K562, K-562, Leukemia, 10 µM one dose, 48 h, read-out: growth percentage
Description: as §1, §2, §3, §4, §5

LOX IMVI = test: NCI-60 one-dose SRB screening; conditions: Homo sapiens, Melanoma, 10 µM one dose, 48 h, read-out: growth percentage
Description: as §1, §2, §3, §4, §5

MDA-MB-435 = test: NCI-60 one-dose SRB screening; conditions: Homo sapiens, MDA-MB-435, Melanoma, 10 µM one dose, 48 h, read-out: growth percentage
Description: as §1, §2, §3, §4, §5

MDA-MB-468 = test: NCI-60 one-dose SRB screening; conditions: Homo sapiens, MDA-MB-468, Breast Cancer, 10 µM one dose, 48 h, read-out: growth percentage
Description: as §1, §2, §3, §4, §5

NCI-H460 = test: NCI-60 one-dose SRB screening; conditions: Homo sapiens, NCI-H460, Non-Small Cell Lung Cancer, 10 µM one dose, 48 h, read-out: growth percentage
Description: as §1, §2, §3, §4, §5

OVCAR-4 = test: NCI-60 one-dose SRB screening; conditions: Homo sapiens, OVCAR-4, Ovarian Cancer, 10 µM one dose, 48 h, read-out: growth percentage
Description: as §1, §2, §3, §4, §5

OVCAR-8 = test: NCI-60 one-dose SRB screening; conditions: Homo sapiens, OVCAR-8, Ovarian Cancer, 10 µM one dose, 48 h, read-out: growth percentage
Description: as §1, §2, §3, §4, §5

PC-3 = test: NCI-60 one-dose SRB screening; conditions: Homo sapiens, PC-3, Prostate Cancer, 10 µM one dose, 48 h, read-out: growth percentage
Description: as §1, §2, §3, §4, §5

SF-295 = test: NCI-60 one-dose SRB screening; conditions: Homo sapiens, SF-295, CNS Cancer, 10 µM one dose, 48 h, read-out: growth percentage
Description: as §1, §2, §3, §4, §5

SK-OV-3 = test: NCI-60 one-dose SRB screening; conditions: Homo sapiens, SK-OV-3, Ovarian Cancer, 10 µM one dose, 48 h, read-out: growth percentage
Description: as §1, §2, §3, §4, §5

SN12C = test: NCI-60 one-dose SRB screening; conditions: Homo sapiens, Renal Cancer, 10 µM one dose, 48 h, read-out: growth percentage
Description: as §1, §2, §3, §4, §5

[1] = tested on: NCI-59 human cancer cell lines; test: NCI-60 one-dose SRB screening, full panel and subpanels; conditions: for inhibition at 10 µM / activity at 10 µM: Homo sapiens; for inhibition at 10 µM: read-out: mean growth inhibition % (MGI%, GI%); for activity at 10 µM: mean over the full panel, 10 µM one dose, 48 h, SRB, read-out: growth percentage, Mean
Description: as §1, §2, §3, §4, §5
Data are expressed as a one-dose mean graph of growth percentages including the mean, delta, and range.

SMILES | activity at 10 µM (A549/ATCC) [%] | activity at 10 µM (BT-549) [%] | activity at 10 µM (CAKI-1) [%] | activity at 10 µM (EKVX) [%] | activity at 10 µM (HCC-2998) [%] | activity at 10 µM (HCT-116) [%] | activity at 10 µM (HOP-62) [%] | activity at 10 µM (HT29) [%] | activity at 10 µM (K-562) [%] | activity at 10 µM (LOX IMVI) [%] | activity at 10 µM (MDA-MB-435) [%] | activity at 10 µM (MDA-MB-468) [%] | activity at 10 µM (NCI-H460) [%] | activity at 10 µM (OVCAR-4) [%] | activity at 10 µM (OVCAR-8) [%] | activity at 10 µM (PC-3) [%] | activity at 10 µM (SF-295) [%] | activity at 10 µM (SK-OV-3) [%] | activity at 10 µM (SN12C) [%] | activity at 10 µM [1] [%] | also measured
O=c1[nH]c(CNc2ccc(NCc3c(-c4ccccc4)no[n+]3[O-])cc2)nc2c1cnn2-c1ccccc1 [14a, 3-(((4-(((4-oxo-1-phenyl-4,5-dihydro-1H-pyrazolo[3,4-d]pyrimidin-6-yl)methyl)amino)phenyl)amino)methyl)-4-phenyl-1,2,5-oxadiazole 2-oxide] | 63.8 | 62.1 | 55.1 | 51.3 | 84.4 | 49.6 | 105 | 92 | 49.8 | 85.5 | 70.7 | 33.2 | 64.2 | 94.5 | 109 | 63.3 | 71.8 | 60.6 | 79 | 72.1 | activity at 10 µM (HL-60(TB)): 63.1%; inhibition at 10 µM ([1]; full NCI-59 panel, 10 µM): 27.9%
Cc1nc(Nc2ccc(OCc3c(-c4ccccc4)no[n+]3[O-])cc2)c2c(C)nn(-c3ccccc3)c2n1 [6d, 3-((4-((3,6-dimethyl-1-phenyl-1H-pyrazolo[3,4-d]pyrimidin-4-yl)amino)phenoxy)methyl)-4-phenyl-1,2,5-oxadiazole 2-oxide] | 103 | 102 | 101 | 102 | 107 | 104 | 107 | 119 | 99.3 | 96.6 | 105 | 107 | 112 | 103 | 107 | 99 | 108 | 109 | 98.4 | 105 | activity at 10 µM (HL-60(TB)): 111%; enhancement of the growth percentage (mean) ([1]; full NCI-59 panel, 10 µM): 1–5%
Nc1ccc(NCc2c(-c3ccccc3)no[n+]2[O-])cc1 [compound 11, 3-(((4-aminophenyl)amino)methyl)-4-phenyl-1,2,5-oxadiazole 2-oxide] | 95.1 | 103 | 108 | 109 | 118 | 98.4 | 136 | 111 | 99.1 | 107 | 90.2 | 85.3 | 101 | 118 | 131 | 95.1 | 117 | 105 | 109 | 107 | activity at 10 µM (HL-60(TB)): 95.5%
Cc1nc(Nc2ccc(OCc3c(-c4ccccc4)no[n+]3[O-])cc2)c2c(C)nn(-c3ccc(Br)cc3)c2n1 [6h, 3-((4-((1-(4-bromophenyl)-3,6-dimethyl-1H-pyrazolo[3,4-d]pyrimidin-4-yl)amino)phenoxy)methyl)-4-phenyl-1,2,5-oxadiazole 2-oxide] | 96.4 | 91.1 | 83.8 | 92.3 | 106 | 71.5 | 104 | 90 | 83.6 | 98.9 | 96.7 | 116 | 100 | 97 | 102 | 67.4 | 105 | 109 | 96.4 | 95.4 | activity at 10 µM (HL-60(TB)): 70.8%; inhibition at 10 µM ([1]; full NCI-59 panel, 10 µM): 1.58 to 4.57%
Cc1nc(Nc2ccc(OCc3c(-c4ccccc4)no[n+]3[O-])cc2)c2cnn(-c3ccc(Br)cc3)c2n1 [6f, 3-((4-((1-(4-bromophenyl)-6-methyl-1H-pyrazolo[3,4-d]pyrimidin-4-yl)amino)phenoxy)methyl)-4-phenyl-1,2,5-oxadiazole 2-oxide] | 94.9 | 94.5 | 81.9 | 91.4 | 104 | 97.5 | 110 | 97.3 | 91.1 | 105 | 94.5 | 111 | 103 | 99.5 | 106 | 103 | 102 | 113 | 94.8 | 99.7 | activity at 10 µM (HL-60(TB)): 100%; mean growth inhibition % (MGI%, GI%) ([1]; full NCI-59 panel, 10 µM): no mean growth inhibition percentage
Cc1nn(-c2ccc(Br)cc2)c2nc(CCl)[nH]c(=O)c12 [13c] | 96.9 | 101 | 96.3 | 99.5 | 105 | 98.3 | 98.5 | 104 | 75.6 | 98.5 | 101 | 94 | 109 | 116 | 102 | 96.3 | 100 | 104 | 100 | 88.3 | 
